Experimental data reported in article PMC6099557, “Cholinesterase Inhibition Activity, Alkaloid Profiling and Molecular Docking of Chilean Rhodophiala (Amaryllidaceae)” (Molecules : A Journal of Synthetic Chemistry and Natural …, 2018).
pIC50: −log10 of the molar value. Converted amounts (≈) assume the structure as drawn. Where two headings read alike, the source gives them in different places.

What was measured:
human serum BuChE = details: tested 0.5–500 μg/mL, cited from earlier work
[1] = biological target: T1, AchE from Electrophorus electricus (Electrophorus electricus, UniProt O42275); assay: biochemical; details: AChE inhibitory activity IC50, single alkaloids and reference galanthamine; electric eel AChE
T1 construct: purchased Merck, Darmstadt, Germany
T1 sequence (O42275 24-633): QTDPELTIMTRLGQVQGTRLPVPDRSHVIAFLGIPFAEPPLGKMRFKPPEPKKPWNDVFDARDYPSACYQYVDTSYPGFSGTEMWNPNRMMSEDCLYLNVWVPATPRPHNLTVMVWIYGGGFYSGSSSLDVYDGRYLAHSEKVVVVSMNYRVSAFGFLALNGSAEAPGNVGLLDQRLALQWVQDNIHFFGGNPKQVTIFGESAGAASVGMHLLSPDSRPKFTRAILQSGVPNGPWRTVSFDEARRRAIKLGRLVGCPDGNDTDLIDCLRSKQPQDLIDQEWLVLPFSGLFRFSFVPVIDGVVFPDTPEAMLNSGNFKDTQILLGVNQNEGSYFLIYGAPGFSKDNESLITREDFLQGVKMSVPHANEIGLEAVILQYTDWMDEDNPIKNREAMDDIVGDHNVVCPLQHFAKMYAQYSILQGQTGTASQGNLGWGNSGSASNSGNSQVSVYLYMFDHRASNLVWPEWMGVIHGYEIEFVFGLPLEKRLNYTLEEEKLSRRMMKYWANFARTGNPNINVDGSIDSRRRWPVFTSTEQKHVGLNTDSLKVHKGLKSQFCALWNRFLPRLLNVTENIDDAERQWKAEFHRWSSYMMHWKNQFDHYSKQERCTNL
Method: (§1) Cholinesterase inhibitory activities were determined according to [35] with some modifications. Stock solutions with 518U of AchE from Electrophorus electricus (Merck, Darmstadt, Germany) and BuChE from equine serum (Merck, Darmstadt, Germany), respectively, were prepared and kept at −20 °C. Acetylthiocholine iodide (ATCI), S-butyrylthiocholine iodide (BTCI) and 5,5′-dithiobis (2-nitrobenzoic acid) (DTNB) were obtained from Merck (Darmstadt, Germany). Fifty microliters of AChE or BuChE (both enzymes used at 6.24 U) in phosphate buffer (8 mM K2HPO4, 2.3 mM NaH2PO4, 0.15 NaCl, pH 7.5) and 50 μL of the sample dissolved in the same buffer were added to the wells. The plates were incubated for 30 min at room temperature. Then, 100 μL of the substrate solution (0.1 M Na2HPO4, […], and 0.6 mM ATCI or 0.24 mM BTCI in Millipore water, pH 7.5) was added. After 10 min, the absorbance was read at 405 nm in a Labsystem microplate reader (Thermo Fischer, Waltham, MA, USA). Enzyme activity was calculated as percent compared to a control using buffer without any inhibitor. […] In a first step, samples were assessed at 10, 100 and 200 μg/mL towards both enzymes. […] The cholinesterase inhibitory data were analyzed with the software Microsoft Office Excel 2010 (Microsoft, Redmond, WA, USA).

BuChE from equine serum = biological target: T2, BuChE from equine serum (Equus caballus, UniProt P81908); assay: biochemical; details: for pIC50: BuChE inhibitory activity IC50, single alkaloids and reference galanthamine; for IC50: single alkaloids and reference galanthamine, read-out: BuChE inhibitory activity IC50 (converted)
T2 construct: BuChE from equine serum (Merck, Darmstadt, Germany); purchased Merck, Darmstadt, Germany; host or cells: equine serum
T2 sequence (P81908 whole entry): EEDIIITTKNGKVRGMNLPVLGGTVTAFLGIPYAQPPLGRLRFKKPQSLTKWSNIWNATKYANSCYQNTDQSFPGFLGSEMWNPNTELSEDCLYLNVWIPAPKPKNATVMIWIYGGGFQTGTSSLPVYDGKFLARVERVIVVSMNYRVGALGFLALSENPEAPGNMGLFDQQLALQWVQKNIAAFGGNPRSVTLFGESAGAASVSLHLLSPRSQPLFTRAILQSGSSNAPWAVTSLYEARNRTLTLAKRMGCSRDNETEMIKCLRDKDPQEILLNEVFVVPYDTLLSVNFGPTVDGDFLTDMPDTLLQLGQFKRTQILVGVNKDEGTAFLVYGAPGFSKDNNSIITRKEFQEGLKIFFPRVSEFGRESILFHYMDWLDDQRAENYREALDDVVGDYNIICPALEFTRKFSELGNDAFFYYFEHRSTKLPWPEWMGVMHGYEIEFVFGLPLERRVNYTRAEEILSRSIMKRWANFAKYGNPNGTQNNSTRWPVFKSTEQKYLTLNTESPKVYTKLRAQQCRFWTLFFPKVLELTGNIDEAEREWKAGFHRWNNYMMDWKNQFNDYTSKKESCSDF
Method: as §1

human erythrocye AChE = details: human erythrocyte AChE, tested 0.5–500 μg/mL, cited from earlier work
E. coli ATCC 24922 = details: cited from earlier work
P. aeruginosa ATCC 27853 = details: cited from earlier work
[2] = test system: panel of eight human cancer cell lines; details: cited from earlier work
S. aureus ATCC 6538 = details: cited from earlier work
[3] = test system: multi-drug resistant breast cell line NCLADR; details: montanine at 2.5 μg/mL; cited from earlier work

COc1cc2c(cc1O)CN1CC[C@@]23C=C[C@@H](O)C[C@H]13 [8-O-demethylmaritidine (16), 8-O-demethylmaritidine]
Activity on human BuChE (in words) (human serum BuChE): inactive | pIC50 [1]: 3.38 | pIC50 (BuChE from equine serum): 3.33 | Activity on human AChE (in words) (human erythrocye AChE): presented activity

OC1C=CC23c4cc5c(cc4CN(CC2O)C3C1)OCO5 (centres unmarked) [11-hydroxyvittatine (20a), 11-hydroxyvittatine]
Activity on human BuChE (in words) (human serum BuChE; listed as 11-hydroxyvitattine): not active | IC50 (BuChE from equine serum): > 696 µM | Activity on human AChE (in words) (human erythrocye AChE; listed as 11-hydroxyvitattine): not active

COc1cc2c(cc1O)C13CCC(O)CC1N(CC3)C2 (centres unmarked) [deacetylcantabricine (17), deacetylcantabricine]
pIC50 [1]: < 3.14 | pIC50 (BuChE from equine serum): < 3.14

COC1C=CC23c4cc5c(cc4CN(CC2O)C3C1)OCO5 (centres unmarked) [haemanthamine (18a), haemanthamine]
Activity on human BuChE (in words) (human serum BuChE): not active | pIC50 (BuChE from equine serum): < 3.18 | Activity on human AChE (in words) (human erythrocye AChE): not active

OC1C=CC23c4cc5c(cc4CN(CC2O)C3C1)OCO5 (centres unmarked) [hamayne (20b), hamayne]
Activity on human BuChE (in words) (human serum BuChE): inactive | IC50 (BuChE from equine serum): 168 µM | Activity on human AChE (in words) (human erythrocye AChE): presented activity

O[C@H]1[C@H]2c3cc4c(cc3CN3CCC(=C[C@@H]1O)[C@H]23)OCO4 [lycorine (9), lycorine]
Activity on human BuChE (in words) (human serum BuChE): not active | pIC50 (BuChE from equine serum): < 3.16 | Activity on human AChE (in words) (human erythrocye AChE): not active

CO[C@H]1C=C2[C@H]3C[N@@](Cc4cc5c(cc43)OCO5)[C@H]2C[C@@H]1O [montanine]
MIC (E. coli ATCC 24922): 5 µg/mL (≈ 16.6 µM) | MIC (P. aeruginosa ATCC 27853): 20 µg/mL (≈ 66.4 µM) | Activity towards a panel of eight human cancer cell lines [2]: showed activity | MIC (S. aureus ATCC 6538): 5 µg/mL (≈ 16.6 µM) | Activity on NCLADR compared with doxorubicine [3]: more active than doxorubicine
